This note sets out measurements from patent US10800741B2 (ANCUREALL PHARMACEUTICAL (SHANGHAI) CO., LTD., priority 2017, dated 2020).

Bounds are passed on as bounds.

Experiment [1] concerns Hep3B2 (FGFR3/4+++). Nature of the experiment: In vitro growth inhibition of Hep3B2 tumor cells (MTT/CCK8). Format: cell-based, Human. The conditions noted are these: Homo sapiens, Hep3B; in vitro growth inhibition (or induction of apoptosis), cells cultured 3 to 5 days, MTT (CCK8); read-out: IC50 Hep3B2 (FGFR3/4+++).
The subject of experiment [2] is KCL-22 (BCR-ABL). Nature of the experiment: In vitro growth inhibition of KCL-22 tumor cells (MTT/CCK8). The conditions noted are these: Homo sapiens, KCL-22; in vitro growth inhibition (or induction of apoptosis), cells cultured 3 to 5 days, MTT (CCK8); read-out: IC50 KCL-22 (BCR-ABL). The class given is cell-based, Human.
For experiment [3], the system named is A375. Nature of the experiment: In vitro growth inhibition of A375 cells. Format: cell-based. Particulars: Homo sapiens, A-375, BRAF V600E, FGFR2 mutant. The protocol:
(§1) Adherent cells were digested with 0.25% trypsin-EDTA (Gibco). Suspension culture cells were collected by centrifugation (1700 rpm, 3 minutes). The supernatant was discarded and the cells were counted. According to each cell growth cycle, different concentrations of cells were prepared (5˜10×10^4 cells per ml), and inoculated to 96-well plates (Corning), with 100 μl per well, and incubated overnight at 37° C., 5% CO2. The next day, the test compound was added to the cultured cells (2 wells in parallel). The final concentration of the solvent was less than 1/1,000. The cells were further cultured for 3 to 5 days and assayed by MTT.
(§2) The MTT test reagent was a Dojindo CCK8 kit and the Microplate Reader was a THERMO […] FC instrument.
(§3) The adherent cells were taken out from the cell culture medium, and immediately added to a freshly prepared complete medium containing 10% CCK8 (5% FBS), 100 ul per hole. The suspended cells were directly added to a CCK8 reagent until reaching a final concentration of 10% and cultured for 1 to 4 hours. When a dark yellow color could be observed in the solvent control wells, the absorbance value at OD450 nm was measured and the cell growth rate was calculated according to the following formula: Cell Growth Rate (%)=100×(T−T0)/(C−T0)
(§4) T=optical density of drug-treated cell wells−optical density of blank control wells; T0=optical density of cell wells before drug treatment−optical density of blank control wells; C=optical density of solvent control wells−optical density of blank control wells. […] The experiments were repeated 1 to 3 times and a statistical analysis of data was conducted.
(§5) Mutations in the FGFR1-4 gene often occur in different types of cancer patients. In order to test the growth inhibition activity of the present compound against tumor cells expressing different FGFR variants, tumor cell lines expressing representative FGFR1-4 were selected for further determining the activity of compounds 25, 66, 38 and 95 of the present invention. BGJ398, a selective inhibitor of FGFR1-4, was used as the control compound. The specific test method is the same as test example 1.

The test system of experiment [4] is DMS114. Nature of the experiment: In vitro growth inhibition of DMS114 cells. Format: cell-based. Particulars: Homo sapiens, DMS-114, FGFR1 amp. The protocol:
as §1, §2, §3, §4, §5

In experiment [5] the test system is JIMT-1. Nature of the experiment: In vitro growth inhibition of JIMT-1 cells. Format: cell-based. The conditions noted are these: Homo sapiens, FGFR1 amp, HER2 amp, PI3KCA C420R. The procedure:
as §1, §2, §3, §4, §5

In experiment [6] the test system is Cal-120. Nature of the experiment: In vitro growth inhibition of Cal-120 cells. Format: cell-based. The conditions noted are these: Homo sapiens, FGFR1 amp. The procedure: as §1, §2, §3, §4, §5
For experiment [7], the system named is RT112/84. Nature of the experiment: In vitro growth inhibition of RT112/84 cells. The class given is cell-based. The conditions noted are these: Homo sapiens, FGFR3-TACC3. The protocol:
as §1, §2, §3, §4, §5

Experiment [8] concerns H1581 (FGFR1 amp). Nature of the experiment: In vitro growth inhibition of H1581 tumor cells (MTT/CCK8). The class given is cell-based, Human. Particulars: Homo sapiens, NCI-H1581; in vitro growth inhibition (or induction of apoptosis), cells cultured 3 to 5 days, MTT (CCK8); read-out: IC50 H1581 (FGFR1 amp).
In experiment [9] the test system is SNU-16. Nature of the experiment: In vitro growth inhibition of SNU-16 cells. Format: cell-based. The conditions noted are these: Homo sapiens, FGFR2 amp. The procedure:
as §1, §2, §3, §4, §5

The subject of experiment [10] is H1703 (PDGFRa amp). Nature of the experiment: In vitro growth inhibition of H1703 tumor cells (MTT/CCK8). Format: cell-based, Human. Particulars: Homo sapiens, NCI-H1703; in vitro growth inhibition (or induction of apoptosis), cells cultured 3 to 5 days, MTT (CCK8); read-out: IC50 H1703 (PDGFRa amp).
The subject of experiment [11] is Kasumi-1 (KIT N822K). Nature of the experiment: In vitro growth inhibition of Kasumi-1 tumor cells (MTT/CCK8). Format: cell-based, Human. The conditions noted are these: Homo sapiens, Kasumi 1; in vitro growth inhibition (or induction of apoptosis), cells cultured 3 to 5 days, MTT (CCK8); read-out: IC50 Kasumi-1 (KIT N822K).
The test system of experiment [12] is Huh-7. Nature of the experiment: In vitro growth inhibition of Huh-7 cells. The class given is cell-based. Particulars: Homo sapiens, FGFR3+++, FGFR4 +++. The protocol:
as §1, §2, §3, §4, §5

Experiment [13] concerns MFM-223. Nature of the experiment: In vitro growth inhibition of MFM-223 cells. The class given is cell-based. The conditions noted are these: Homo sapiens, PI3KCA H1047R, FGFR1 amp, FGFR2 amp. The procedure: as §1, §2, §3, §4, §5
Experiment [14] concerns KATO III (FGFR2 amp). Nature of the experiment: In vitro growth inhibition of KATO III tumor cells (MTT/CCK8). Format: cell-based, Human. The conditions noted are these: Homo sapiens, KATO III; in vitro growth inhibition (or induction of apoptosis), cells cultured 3 to 5 days, MTT (CCK8); read-out: IC50 KATO III (FGFR2 amp).
In experiment [15] the test system is JHH-7. Nature of the experiment: In vitro growth inhibition of JHH-7 cells. The class given is cell-based. The conditions noted are these: Homo sapiens, JHH7, FGFR3+++, FGFR4 +++. The protocol: as §1, §2, §3, §4, §5
Experiment [16] relates to MDA-MB-453. Nature of the experiment: In vitro growth inhibition of MDA-MB-453 cells. Format: cell-based. Particulars: Homo sapiens, PI3KCA H1047R, FGFR4+++/Y367C. The protocol: as §1, §2, §3, §4, §5
Experiment [17] concerns AN3-CA. Nature of the experiment: In vitro growth inhibition of AN3-CA cells. Particulars: Homo sapiens, FGFR2 mutant. Format: cell-based. The procedure: as §1, §2, §3, §4, §5
Experiment [18] has as its system Karpas 299 (NPM-ALK). Nature of the experiment: In vitro growth inhibition of Karpas 299 tumor cells (MTT/CCK8). Format: cell-based, Human. The conditions noted are these: Homo sapiens, KARPAS-299; in vitro growth inhibition (or induction of apoptosis), cells cultured 3 to 5 days, MTT (CCK8); read-out: IC50 Karpas 299 (NPM-ALK).
For experiment [19], the system named is HCC1954. Nature of the experiment: In vitro growth inhibition of PI3KCA amplified/mutant tumor cells HCC1954. Format: cell-based. Particulars: Homo sapiens, HCC1954, read-out: IC50 growth inhibition. The procedure: (§6) Suspension culture cells were collected by centrifugation (1700 rpm, 3 minutes). The supernatant was discarded and the cells were counted. According to each cell growth cycle, different concentrations of cells were prepared (5˜10×10^4 cells per ml), and inoculated to 96-well plates (Corning), with 100 μl per well, and incubated overnight at 37° C., 5% CO2. The next day, the test compound was added to the cultured cells (2 wells in parallel). The final concentration of the solvent was less than 1/1,000. The cells were further cultured for 3 to 5 days and assayed by MTT.
(§7) The adherent cells were taken out from the cell culture medium, and immediately added to a freshly prepared complete medium containing 10% CCK8 (5% FBS), 100 ul per hole. The suspended cells were directly added to a CCK8 reagent until reaching a final concentration of 10% and cultured for 1 to 4 hours.
as §4

The subject of experiment [20] is NCI-H460. Nature of the experiment: In vitro growth inhibition of PI3KCA amplified/mutant tumor cells NCI-H460. Format: cell-based. The conditions noted are these: Homo sapiens, NCI-H460, read-out: IC50 growth inhibition. The protocol:
as §6, §7, §4

Experiment [21] deals with HGC-27. Nature of the experiment: In vitro growth inhibition of PI3KCA amplified/mutant tumor cells HGC-27. Format: cell-based. Particulars: Homo sapiens, HGC-27, read-out: IC50 growth inhibition. The procedure:
as §6, §7, §4

The test system of experiment [22] is SW48. Nature of the experiment: In vitro growth inhibition of PI3KCA amplified/mutant tumor cells SW48. The class given is cell-based. Particulars: Homo sapiens, SW48, read-out: IC50 growth inhibition. The procedure:
as §6, §7, §4

The test system of experiment [23] is KYSE70. Nature of the experiment: In vitro growth inhibition of PI3KCA amplified/mutant tumor cells KYSE70. The class given is cell-based. Particulars: Homo sapiens, KYSE-70, read-out: IC50 growth inhibition. The procedure: as §6, §7, §4
The test system of experiment [24] is AGS. Nature of the experiment: In vitro growth inhibition of PI3KCA amplified/mutant tumor cells AGS. Format: cell-based. The conditions noted are these: Homo sapiens, read-out: IC50 growth inhibition. The protocol: as §6, §7, §4
Experiment [25] has as its system SK-OV-3. Nature of the experiment: In vitro growth inhibition of PI3KCA amplified/mutant tumor cells SK-OV-3. The class given is cell-based. Particulars: Homo sapiens, SK-OV-3, read-out: IC50 growth inhibition. The procedure: as §6, §7, §4
Experiment [26] deals with A2780. Nature of the experiment: In vitro growth inhibition of PI3KCA amplified/mutant tumor cells A2780. Format: cell-based. The conditions noted are these: Homo sapiens, A2780, read-out: IC50 growth inhibition. The procedure:
as §6, §7, §4

In experiment [27] the test system is HCT116. Nature of the experiment: In vitro growth inhibition of PI3KCA amplified/mutant tumor cells HCT116. The class given is cell-based. The conditions noted are these: Homo sapiens, HCT-116, read-out: IC50 growth inhibition. The protocol:
as §6, §7, §4

The test system of experiment [28] is Hep G2. Nature of the experiment: In vitro growth inhibition of Hep G2 cells. The class given is cell-based. The conditions noted are these: Homo sapiens, HepG2, FGFR3+++, FGFR4 +++. The procedure:
as §1, §2, §3, §4, §5

The subject of experiment [29] is PLC/PRF/5. Nature of the experiment: In vitro growth inhibition of PLC/PRF/5 cells. Format: cell-based. The conditions noted are these: Homo sapiens, FGFR3+++, FGFR4 +++. The procedure:
as §1, §2, §3, §4, §5

In experiment [30] the test system is MOLM-13 (FLT3-ITD). Nature of the experiment: In vitro growth inhibition of MOLM-13 tumor cells (MTT/CCK8). Format: cell-based, Human. The conditions noted are these: Homo sapiens, MOLM-13; in vitro growth inhibition (or induction of apoptosis), cells cultured 3 to 5 days, MTT (CCK8); read-out: IC50 MOLM-13 (FLT3-ITD).

For `CCN1CCN(c2ccc(Nc3cc(N(C)C(=O)Nc4c(Cl)c(OC)cc(OC)c4Cl)ncn3)cc2)CC1` [BGJ398, reference compound], the IC50 in experiment [1] was 38.9 nM; in experiment [2], greater than 1000 nM; in experiment [3], greater than 1000 nM; in experiment [4], 6.97 nM; in [5] it was greater than 1000 nM; in [6] it was greater than 1000 nM. For the same compound, the IC50 is 8.12 nM in experiment [7]; 6.97 nM in [8]; 2.18 nM in [9]; greater than 1000 nM in experiment [10]; greater than 1000 nM in [11]; 30.9 nM in [12]. Besides, the IC50 is greater than 1000 nM in experiment [13]; 0.461 nM in experiment [14]; 31.8 nM in experiment [15]; greater than 1000 nM in [16]; 62.1 nM in [17]; greater than 1000 nM in [18].
`COc1c(OCCCN2CCOCC2)ccc2c1N=C(NC(=O)c1cnc(N)nc1)N1CCN=C21` [BAY 80-6946, reference compound]: the IC50 in experiment [19] was found to be 6.8 nM; in [20] it was 30.4 nM; in experiment [21] it was 17.3 nM; in [22], 27.5 nM; in experiment [23], 19.7 nM; in [24], 39.5 nM. In addition, the IC50 turned out to be 10.2 nM in [25], 9.67 nM in [26] and 65.1 nM in experiment [27].
Turning to `COc1cc2nccc(Oc3ccc(NC(=O)Nc4cc(C(C)(C)C)n[nH]4)c(Cl)c3)c2cc1C(N)=O` [Compound 25, 4-{4-[3-(5-tert-butyl-2H-pyrazol-3-yl)-ureido]-3-chloro-phenoxy}-7-methoxyquinolin-6-carboxamide], the IC50 in [28] was 127 nM; in [1], 14.2 nM; in [2], 16.4 nM; in [3], 129 nM; in experiment [4], 15.6 nM; in experiment [5], 467 nM. For the same compound, the IC50 in [6] amounted to 64.7 nM; in experiment [7], 31.5 nM; in [8] it was 9.7 nM; in experiment [9] it was 1.95 nM; in [29], 2.95 nM; in experiment [10], 13.5 nM. Moreover, the IC50 was 44 nM in experiment [11]; 7.12 nM in [12]; 21.6 nM in experiment [13]; 19.1 nM in experiment [30]; 0.24 nM in experiment [14]; 4.88 nM in [15]. Also, the IC50 came out at 309 nM in experiment [16], 4.95 nM in [17] and 600 nM in experiment [18].
